The subject of assay [1] is primary chick cortical neurons. Briefly: Phosphoinositide hydrolysis assay (InsP3 production) in cultured primary cortical neurons. The class given is cell-based. The conditions noted are these: for fold induction at 100 µM: Gallus gallus, Cortical neurone, 20 min, read-out: Ins-P-n. As to the method:
The neurons were seeded in 24-well plastic tissue culture plates that had been coated with L-polylysine.
Receptor-stimulated and basal unstimulated hydrolysis of phosphoinositides was measured by the following procedure. […] The cells were then washed twice with 1 ml Dulbecco's phosphate-buffered saline (PBS) and 0.5 ml of PBS containing 4.5 g/L glucose was added. Sphingosine, psychosine, lysosulphatide, or lysosphingomyelin, prepared as the hydrochloride salt dissolved in water, were then added to produce the desired extracellular concentration in specific wells, […] The cells were then washed twice with 1 ml PBS, and pre-incubated for 15 minutes at 37°C with 0.5 ml PBS containing 10 mM LiCl and the compound to be tested was added. […] The tubes were vortexed thoroughly, then centrifuged at 500 x g for 5 minutes to separate the aqueous and chloroform phases. For each sample, a 1.5-ml aliquot of the upper (aqueous) phase was applied to a small column containing BioRad AG1X8 resin (formate form). Free [^3H]inositol and [^3H]glycerophosphoinositol were washed through the column with 5 ml of a solution containing 5 mM sodium borate and 60 mM sodium formate. The total phosphorylated [^3H] inositol fraction was eluted from the column for radiometric scintillation spectrometry analysis with 3 ml 1.0 M ammonium formate/0.1 M formic acid.
In addition, a 0.5 ml aliquot of the lower (chloroform) phase of each sample was analyzed radiometrically by scintillation spectrometry in order to determine the quantity of lipid-bound [^3H]myo-inositol. Estimation of phosphoinositide hydrolysis by phospholipase C is based upon the quantity of [^3H]inositol phosphates produced, and is expressed as the percentage of the latter relative to total free and componential [^3H]inositol (dpm ammonium formate + dpm chloroform fractions).

The next assay relates to cultured neurons. The assay is described as follows: Lysosphingolipid content of cultured neurons by NBDZF fluorescence tagging. The assay is classed as cell-based, chick. The text has this: Agonist-binding to metabotropic receptors influences the levels of lysosphingolipid in neuronal membranes. However, there is no convenient methodology available for the measurement of lysosphingolipid content in cultured neurons. As a result, a sensitive method of fluorometric tracing has been devised and is described herein. The measurement of lysosphingolipid content in cultured neurons is based on the stable fluorescence-tagging procedure using 4-fluoro, 7-nitrobenzofuran (NBDZF) described by Nozowa et al J. Neutochem. 59:607-609, 1992). The procedure was applied to: resting neurons; neurons exposed to 100 µM metabotropic receptor agonist for 1 hour; resting neurons exogenously enriched in lysosphingolipids; and neurons exogenously enriched in lysosphingolipids and exposed to metabotropic receptor agonist for 1 hour. The neurons were scraped in batches of 10^7 (1 Petri dish, approximately 8 cm in diameter, is equivalent to 2 mg membrane protein) and subjected to anaylsis.
Total lipids were removed from the neuron samples by repeated extraction with chloroform:methanol (2:1, vol:vol). The lysosphingolipids were separated from total neuronal lipid in 90 ± 5 % recovery yield (n = 10) by the stepped chromatographic procedure of Van Veldhoven et al. (Anal. Biochem. 183:177-189, 1989). The recovered lysosphingolipids were stably tagged with NBDZF by the rapid procedure of Nozowa et al. (supra). The fluorescence tagged neuronal lysosphingolipids were separated in parallel with reference standards NBDZF-Sph, NBDZF-Psy, and NBDZF-Lsm on high performance silica gel thin layer chromatography plates with acetonitrile:H2O (10:0.5, vol:vol). The highly fluorescent, well separated bands were scraped from the plate. The fluorescence tagged lysosphingolipids are eluted from the scraped silica gel with methanol:1 N HCl (1:0.02, vol:vol). The fluorescence tagged lysosphingolipid eluates were quantitated against reference standards by fluorescence measurement in a Perkin-Elmer LS-5 Fluorescence Spectrometer.
Sphingolipid content of neurons exposed to sphingosine, lysocerebroside, and lysosphingomyelin was examined as follows. A Petri dish containing approximately 10^7 neurons was incubated with 5 µCi [^3H]myo-Ins in 3 ml DMEM overnight to prelabel the phosphoinositide InsP3 may contain. The neurons were washed with PBS and 3 ml of PBS containing 4.5 g/l glucose was added. Preparations of sphingosine, lysocerebroside, lysosphingomyelin (Sigma Chemical Co., St. Louis, MO) and combinations of each were prepared as the hydrochloride salt dissolved in PBS. The lysosphingolipids were added to the Petri dishes to produce a concentration ranging from 0 - 150 µM. The dishes were held at room temperature for 0.5, 1, or 2 hours, then washed with PBS and incubated with 5 Units of trypsin in glucose/PBS for […] at 37°C. Trypsinization removes non-specifically bound lysosphingolipids that may adhere to extracellular plasma membrane protein domains. Non-specific adherence between cationic micelles of lysosphingolipids and the neuronal glycocalyx is avoided by performing the experiments with lysosphingolipid concentrations below the critical micelle concentration. Neurons were analyzed for lysosphingolipid content as described above.

The subject of another assay is cortical neurons. Briefly: Calcium ion signalling (fura 2) in intact cortical neurons. The class given is cell-based, chick. As to the method: Metabotropic receptor function was examined in intact neurons by assaying lysosphingolipid modulation of calcium ion signalling. Approximately 1 X 10^6 cortical neurons were cultured on rectangular L-polylysine-coated coverslips and loaded with lysocerebroside or lysosphingomyelin to a level of 150 ± 20 pmoles per mg protein. The neurons were returned to complete Ham's high glucose medium/DMEM (1:1, vol:vol) and infiltrated with 5 µM fura 2/AM (Molecular Probes, Eugene, OR). Fura 2 is a calcium chelator whose fluorescence absorbance shifts to shorter wavelength upon calcium ion binding is measurable in intact cells. A change in intraneuronal calcium ion concentration was monitored as a change in the fluorescence spectrum.
The neurons were exposed to 10 µM glutamate agonist (for example, ibotenate) for 30 minutes at 37°C. The coverslips were then transferred to quartz cuvettes in medium containing 250 µM sulfinpyrazone to prevent fura 2/AM diffusion. Fluorescence ratios were recorded in a Perkin-Elmer LS-5 Fluorescence Spectrometer thermostatted at 37°C at excitation wavelengths of 340 and 380 nm, and emission measurement at 500 nm. Calcium ion signalling in agonist-stimulated neurons was 3.0 ± 0.2 arbitrary units for ibotenate-exposed neurons.

Marks after values point to notes of the source that are not given here.

As for `NC(C(=O)O)c1cc(O)no1` (stereo not drawn) [Ibotenate, ibotenate, reference compound], the Ins-P-n in assay [1] is 3.00 ± 0.10^f. In addition, in the assay with cultured neurons, the “lysocerebroside content of neurons” value is listed as 80 ± 5, the “lysosphingomyelin content of neurons” value came out at 52 ± 2 and the “sphingosine content of neurons” value amounted to 85 ± 3. Moreover, in the assay on cortical neurons, the Calcium ion signalling turned out to be 3.0 ± 0.2 arbitrary units.
Consider `CN[C@@H]1C[C@H]2O[C@@](C)([C@@H]1OC)n1c3ccccc3c3c4c(c5c6ccccc6n2c5c31)C(=O)NC4` [staurosporine, reference compound], for which the “influence on the effects of sphingosine, lysocerebroside, or lysosphingomyelin on InsP3 production” value in assay [1] (brain neurons responsive to excitatory amino acids, protein kinase C inhibitor) was “does not influence”.
`N[C@@H](CC(=O)O)C(=O)O` [Aspartate, aspartate, reference compound]: the fold induction at 100 µM in assay [1] came to 2.7 ± 0.06.
On to Lysosulphatide [reference compound], for which, in assay [1] (chick cortical neurons), the “inhibitory effect on InsP3 signalling” value is reported as “without inhibitory effect”.
Regarding `N[C@@H](CCC(=O)O)C(=O)O` [Glutamate, glutamate, reference compound], the fold induction at 100 µM in assay [1] is 3.3 ± 0.05.

The values are drawn from patent EP1488698A1, “Compositions for descreasing intracellular inositol trisphosphate concentration and uses thereof” (priority 1995, dated 1997).
